Reference: US20080138288A1, “COMBINATIONS FOR TREATMENT OF NEOVASCULATURE” (Washington University, priority 2006, published 2008)

System: aortic vasa vasorum neovasculature
Test: MRI signal enhancement of aortic vasa vasorum neovasculature in cholesterol-fed rabbits (Example 1, FIG. 1)
Type: in vivo
Details: weeks 2 to 8; atorvastatin in high-cholesterol chow, 44 mg/kg feed
Protocol: Cholesterol-fed rabbits received αvβ3-targeted paramagnetic nanoparticles (NP) with (n=9) or without (n=9) fumagillin (30 μg/kg body weight) at weeks 0 and 4. A portion of the animals (n=4 per group) was treated with atorvastatin included in the high-cholesterol chow (44 mg/kg feed). Assessment of antiangiogenic response was evaluated at weeks 2, 4, 6 and 8 using αvβ3-targeted paramagnetic NP lacking the drug. MRI signal enhancement from the aortic vasa vasorum neovasculature was calculated from transverse black-blood MR images (1.5 T) collected before and 4 hours post NP injection (1 ml/kg body weight). The MRI enhancement observed at each timepoint was normalized with respect to the enhancement measured at week 0.

CC(C)c1c(C(=O)Nc2ccccc2)c(-c2ccccc2)c(-c2ccc(F)cc2)n1CC[C@@H](O)C[C@@H](O)CC(=O)O [atorvastatin]
MRI enhancement in the thoracic aorta, normalized to week 0, time course: slow decrease in enhancement
